Results: patent US20230101903A1, “COMPOUNDS USEFUL AS ANTI-VIRAL AGENTS” (NATURE CRETE PHARMACEUTICALS PC, priority 2020, published 2023)
Values after ≈ are worked out from the molar mass of the structure shown. Read-outs that look alike come from different tables or passages of the source.

What was measured:
Influenza A/FM/1/47/H1N1 [1] = assay: virus titer of supernatants of infected MDCK-II cells (plaque titration); format: cell-based, human Influenza A/FM/1/47/H1N1 strain
Protocol: (§1) All assays in Examples 1, 2, 4 and 5 were performed with the human Influenza A/FM/1/47/H1N1 strain, and canine MDCK-II cells, whilst in Example 7 VERO E6 monkey kidney cells were used.
MDCK-II cells in Minimal Essential Medium (MEM) were seeded into a 6-well plate and incubated at 37° C. The following day, the cells were infected with influenza A/FM/1/47/H1N1 and incubated at 37° C. for 2 hours, followed by washing extensively with serum free MEM.
The infected cells were then cultured in media supplemented with varying concentrations of Compound A at 37° C. for 24 to 48 hours. Supernatants of the infected cells, containing the newly synthesised virions, were harvested and titrated in MDCK-II cells. Upon plaque formation, the infected cells were washed with phosphate-buffered saline (PBS) and fixed with paraformaldehyde. Cell monolayers were stained with crystal violet and observed microscopically.

[2] = tested on: influenza virus A/FM/1/47/H1N1; assay: Real-Time PCR of newly synthesized viral RNA (M1 genome copies) in infected MDCK-II cells; format: cell-based, human Influenza A/FM/1/47/H1N1 strain; conditions: 12 hours
Protocol: as §1
MDCK-II cells were plated in 12-well plates. After overnight incubation, the cells were washed with phosphate-buffer saline (PBS) and infected with influenza virus A/FM/1/47/H1N1) for 2 hours at 37° C.
The inoculum was then removed and the cells were incubated with MEM containing various concentrations of Compound A for 12 hours.

[3] = tested on: SARS-CoV-2 (isolate 30-287); assay: microbe, parasite or virus in culture; format: cell-based; conditions: Severe acute respiratory syndrome coronavirus 2, Vero C1008, VERO E6 cells, 96 hours, read-out: IC50, synthesis of new viral RNA
Influenza A/FM/1/47/H1N1 [4] = assay: plaque-reduction assay in MDCK-II cells; format: cell-based, human Influenza A/FM/1/47/H1N1 strain; conditions: 72 hours, all concentrations above 200 ng/mL
Protocol: as §1
The antiviral activity of p-cymene in Influenza A/FM/1/47/H1N1 was assayed in a plaque-reduction assay (expressed in forming plaques).
Canine MDCK-II cells were seeded into 6-well plastic plates and cultured at 37° C. under 5% CO2 for 24 hours. The MDCK-II cells were then inoculated with Influenza A/FM/1/47/H1N1 for 2 hours, after which the infected cells were washed and cultured for 72 hours at 37° C. under 5% CO2 in the presence of different concentrations of p-cymene in Minimum Essential Medium (MEM). Ribavirin was used as a control at a concentration of 25 μM.
After incubation, the virus-infected cells were observed microscopically. After 3 days of infection, cells were fixed with paraformaldehyde and cell monolayers were stained with crystal violet.

[5] = tested on: influenza virus A/FM/1/47; assay: intracellular viral nucleoprotein (NP) by Western Blot Analysis in infected cells; format: cell-based, human Influenza A/FM/1/47/H1N1 strain; conditions: p-cymene 200 ng/mL; 7, 10 and 24 hours after infection
Protocol: as §1
Intracellular viral nucleoprotein (NP) concentration was quantified by Western Blot Analysis at 7, 10 and 24 hours after infection.
A six-well culture plate was seeded with cells, which were then incubated at 37° C. for 24 hours under 5% CO2. The cells were infected with influenza virus A/FM/1/47 at 37° C. for 1 hour and then p-cymene was added (200 ng/mL). The cells were harvested at the indicated time periods (7h, 10h and 24h). The lysates were incubated for 20 min on ice and then centrifuged at 14,000×g for 10 min at 4° C. The supernatants were collected and equal amounts of proteins were resolved by sodium dodecyl sulfate (10%) polyacrylamide gel electrophoresis.

[6] = pre-incubation (2 hours before infection)

Row | SMILES | virus titer (Influenza A/FM/1/47/H1N1 [1]; MDCK-II cells, 24 and 48 hpi, varying concentrations) | anti-viral action (conclusion of the in vitro studies) (Influenza A/FM/1/47/H1N1 [1]; compared with ribavirin) | synthesis of new viral RNA ([2]; all concentrations tested) | viral M1 genome copy numbers ([2]; nuclear RNA) | IC50 ([3]; co-incubation) [µg/mL] | IC50 [3, 6] [µg/mL] | plaque formation (number of forming plaques) (Influenza A/FM/1/47/H1N1 [4]) | amount of intracellular viral nucleoprotein (NP) [5]
1 | CCCOCC(CC)c1ccc(C)cc1 (stereo not shown) [Compound A] | significantly decreased virus titer | significant anti-viral action, comparable with that of ribavirin | inhibits | decreased | 38 | 9 (≈ 43.6 µM) |  | 
2 | Cc1ccc(C(C)C)cc1 [p-cymene] |  |  |  |  | 83 | 59 (≈ 440 µM) | significant, dose-dependent decrease of plaque formation | significantly decreased
